The record followed here is patent publication US11571480B2, “Multi-ligand drug conjugates and uses thereof” (priority 2015, dated 2023).

As usually defined, the IC50 is the point on the concentration scale where inhibition reaches its midpoint.

In series [1] the test system is A375 (folate receptor negative cell). The series can be described thus: Endocytosis test of conjugate LDC10B (FITC conjugates, confocal microscope). In kind it is cell-based. The settings on record: 1 μM FITC conjugate, 10-15 min at 37° C. The procedure:
(§1) The involved conjugates are as follows: Folate-FITC (FITC-ACP-Lys (Folate)-OH), 10B-FITC, and 10A-FITC.
(§2) Culture medium: RPMI 1640 Medium, no folic acid
(§3) 1) human nasopharyngeal cancer cell line KB, melanoma cell line A375, human lung cancer cell H460, ovarian cancer cell SKOV3, breast cancer cell line HCC1954 were incubated at 37° C., 5% CO2 in RPMI 1640 medium containing 10% fetal bovine serum, the cells were passaged every 2-3 days.
(§4) 2) human nasopharyngeal cancer cell line KB, melanoma cell line A375, human lung cancer cell H460, ovarian cancer cell SKOV3, breast cancer cell line HCC1954 were plated at 1×10^3 cells per well (96-well plate) and incubated for 8-12 h at 37° C., 5% CO2.
(§5) 3) 1 μM of FITC conjugates or control was added to the cells in the plate and incubated for 10-15 min at 37° C. The culture medium in the wells was then removed by aspiration and the cells were washed with PBS for three times.
(§6) 4) cells were then imaged with confocal microscope (brand) to visualize endocytosis.

Series [2] concerns KB (folate receptor positive cell). The description is as above. On the set-up: endocytosis after pre-incubation with free Folate: dose or concentration left out as unconfirmed. In kind it is cell-based, human. The procedure:
as §1, §2, §3, §4, §5, §6

The subject of series [3] is melanoma cell line A375. The series can be described thus: Cytotoxicity test of conjugate LDC1013. It is filed as cell-based. The settings on record: A375, incubated 15-30 min, then 2-3 days. The procedure:
as §2
(§7) 1) human nasopharyngeal cancer cell line KB, melanoma cell line A375, and human lung cancer cell H460 were incubated at 37° C., 5% CO2 in RPMI 1640 medium containing 10% fetal bovine serum, the cells were passaged every 2-3 days.
(§8) 2) human nasopharyngeal cancer cell line KB, melanoma cell line A375, and human lung cancer cell H460 were plated at 1×10^3 cells per well (96-well plate) and incubated for 8-12 h at 37° C., 5% CO2.
(§9) 3) Stock solutions of LDC conjugates or control were prepared in PBS solution. 100 μL/well of serially diluted LDC conjugates or control was added to the cells in the plate and incubated for 15-30 min at 37° C., 5% CO2. The culture medium in the wells was then removed by aspiration and the cells were incubated in fresh culture medium without conjugates (150 μL/well) for 2-3 days at 37° C., 5% CO2.
(§10) 4) CellTiter 96® Aqueous One Solution Cell Proliferation Assay (Promega) was added to each well to measure the amount of […] cells, and the plate was incubated in an incubator for 1 h at 37° C., 5% CO2.
(§11) 5) the plate was read at 490 nm on a microplate reader, and the cell survivals were compared for cells with or without the treatment of LDC conjugates. The LDC drug concentrations that are required for 50% cell death (IC50 values) were determined.

For series [4], the system named is human lung cancer cell H460. The series can be described thus: Cytotoxicity test of conjugate LDC1013. It is filed as cell-based. The settings on record: H460, incubated 15-30 min, then 2-3 days. Here is the method:
as §2, §7, §8, §9, §10, §11

In series [5] the test system is human nasopharyngeal cancer cell line KB. The series can be described thus: Cytotoxicity test of conjugate LDC1013. The settings on record: incubated 15-30 min, then 2-3 days. It is filed as cell-based. The procedure: as §2, §7, §8, §9, §10, §11
Series [6] relates to ovarian cancer cell SKOV3. The series can be described thus: Cytotoxicity test of conjugate LDC11B. The settings on record: SKOV3, incubated 15-30 min, then 2-3 days. It is filed as cell-based, human. The procedure:
as §2
(§12) 1) human lung cancer cell H460, ovarian cancer cell SKOV3, human embryonic kidney cell 293A were incubated at 37° C., 5% CO2 in RPMI 1640 medium containing 10% fetal bovine serum, the cells were passaged every 2-3 days.
(§13) 2) human lung cancer cell H460, ovarian cancer cell SKOV3, human embryonic kidney cell 293A were plated at 1×10^3 cells per well (96-well plate) and incubated for 8-12 h at 37° C., 5% CO2.
as §9, §10
(§14) 5) The plate was read at 490 nm on a microplate reader, and the cell survivals were compared for cells with or without the treatment of LDC conjugates. The LDC drug concentrations that are required for 50% cell death (IC50 values) were determined.

For series [7], the system named is human lung cancer cell H460. The series can be described thus: Cytotoxicity test of conjugate LDC10H. In kind it is cell-based. The settings on record: H460, incubated 15-30 min, then 2-3 days. Here is the method:
as §2
(§15) 1) human lung cancer cell H1299, ovarian cancer cell SKOV3, breast cancer cell line HCC1954, and human lung cancer cell H460 were incubated at 37° C., 5% CO2 in RPMI 1640 medium containing 10% fetal bovine serum, the cells were passaged every 2-3 days.
(§16) 2) human lung cancer cell H1299, ovarian cancer cell SKOV3, breast cancer cell line HCC1954, and human lung cancer cell H460 were plated at 1×10^3 cells per well (96-well plate) and incubated for 8-12 h at 37° C., 5% CO2.
as §9, §10, §11

The subject of series [8] is human lung cancer cell H1299. The series can be described thus: Cytotoxicity test of conjugate LDC10H. It is filed as cell-based. Conditions: H1299, incubated 15-30 min, then 2-3 days. Here is the method: as §2, §15, §16, §9, §10, §11
Series [9] relates to breast cancer cell line HCC1954. Nature of the series: Cytotoxicity test of conjugate LDC10H. In kind it is cell-based, human. The settings on record: HCC1954, incubated 15-30 min, then 2-3 days. The procedure: as §2, §15, §16, §9, §10, §11
For series [10], the system named is ovarian cancer cell SKOV3. Nature of the series: Cytotoxicity test of conjugate LDC10H. In kind it is cell-based, human. Conditions: SKOV3, incubated 15-30 min, then 2-3 days. The procedure: as §2, §15, §16, §9, §10, §11
In series [11] the test system is human lung cancer cell H460. The series can be described thus: Cytotoxicity test of conjugate LDC11B. In kind it is cell-based. Conditions: H460, incubated 15-30 min, then 2-3 days. Here is the method:
as §2, §12, §13, §9, §10, §14

In series [12] the test system is human embryonic kidney cell 293A. The series can be described thus: Cytotoxicity test of conjugate LDC11B. It is filed as cell-based. Conditions: incubated 15-30 min, then 2-3 days. Here is the method:
as §2, §12, §13, §9, §10, §14

For series [13], the system named is human nasopharyngeal cancer cell line KB. Nature of the series: Cytotoxicity test of conjugate LDC13B. It is filed as cell-based. Conditions: KB, incubated 15-30 min, then 2-3 days. The procedure:
as §2
1) human nasopharyngeal cancer cell line KB, human colon carcinoma HCT-116, human prostatic cancer cell PC-3, human gastric cancer cell line GTL-16, human endometrial cancer cell HEC-1A, and human gastric cancer cell N87 were incubated at 37° C., 5% CO2 in RPMI 1640 medium containing 10% fetal bovine serum, the cells were passaged every 2-3 days.
2) human nasopharyngeal cancer cell line KB, human colon carcinoma HCT-116, human prostatic cancer cell PC-3, human gastric cancer cell line GTL-16, human endometrial cancer cell HEC-1A, and human gastric cancer cell N87 were plated at 1×10^3 cells per well (96-well plate) and incubated for 8-12 h at 37° C., 5% CO2.
as §9, §10, §11

In series [14] the test system is melanoma cell line A375. Nature of the series: Cytotoxicity test of conjugate LDC10B. In kind it is cell-based. Conditions: A375, Incubation Time 15 min. The procedure: as §2
(§17) 1) human nasopharyngeal cancer cell line KB, melanoma cell line A375, human lung cancer cell H1299, chronic myeloid leukemia cell line K562, human lung cancer cell H460, ovarian cancer cell SKOV3, breast cancer cell line HCC1954, human gastric cancer cell N87, and human breast cancer cell SK-BR-3 were incubated at 37° C., 5% CO2 in RPMI 1640 medium containing 10% fetal bovine serum, the cells were passaged every 2-3 days.
(§18) 2) human nasopharyngeal cancer cell line KB, melanoma cell line A375, human lung cancer cell H1299, chronic myeloid leukemia cell line K562, human lung cancer cell H460, ovarian cancer cell SKOV3, breast cancer cell line HCC1954, human gastric cancer cell N87, and human breast cancer cell SK-BR-3 were plated at 1×10^3 cells per well (96-well plate) and incubated for 8-12 h at 37° C., 5% CO2.
(§19) 3) Stock solutions of LDC conjugates or controls were prepared in PBS solution. 100 μL/well of serially diluted LDC conjugates or controls was added to the test cells in the plates and incubated for 15-30 min at 37° C., 5% CO2. The culture medium in the wells was then removed by aspiration and the test cells were incubated in fresh culture medium without conjugates (150 μL/well) for 2-3 days at 37° C., 5% CO2.
(§20) 4) CellTiter 96® Aqueous One Solution Cell Proliferation Assay (Promega) was added to each well to measure the amount of […] cells, and each plate was incubated in an incubator for 1 h at 37° C., 5% CO2.
(§21) 5) Each plate was read at 490 nm on a microplate reader, and the cell survivals were compared for test cells with or without the treatment of LDC conjugates. The LDC drug concentrations that are required for 50% cell death (IC50 values) were determined.

In series [15] the test system is chronic myeloid leukemia cell line K562. Nature of the series: Cytotoxicity test of conjugate LDC10B. In kind it is cell-based. Conditions: K562, Incubation Time 30 min. Here is the method:
as §2, §17, §18, §19, §20, §21

In series [16] the test system is human lung cancer cell H460. Nature of the series: Cytotoxicity test of conjugate LDC10B. It is filed as cell-based. The settings on record: H460, Incubation Time 30 min. The procedure:
as §2, §17, §18, §19, §20, §21

The subject of series [17] is human nasopharyngeal cancer cell line KB. Nature of the series: Cytotoxicity test of conjugate LDC10B. In kind it is cell-based. Conditions: Incubation Time 15 min. Here is the method: as §2, §17, §18, §19, §20, §21
Series [18] deals with human lung cancer cell H1299. The series can be described thus: Cytotoxicity test of conjugate LDC10B. It is filed as cell-based. Conditions: H1299, Incubation Time 30 min. The procedure:
as §2, §17, §18, §19, §20, §21

Series [19] deals with human gastric cancer cell N87. Nature of the series: Cytotoxicity test of conjugate LDC10B. In kind it is cell-based. The settings on record: N87, Incubation Time 30 min. Here is the method: as §2, §17, §18, §19, §20, §21
For series [20], the system named is human breast cancer cell SK-BR-3. Nature of the series: Cytotoxicity test of conjugate LDC10B. In kind it is cell-based. Conditions: SK-BR-3, Incubation Time 30 min. The procedure:
as §2, §17, §18, §19, §20, §21

The test system of series [21] is breast cancer cell line HCC1954. Nature of the series: Cytotoxicity test of conjugate LDC10B. It is filed as cell-based, human. The settings on record: HCC1954, Incubation Time 30 min. Here is the method: as §2, §17, §18, §19, §20, §21
Series [22] has as its system ovarian cancer cell SKOV3. The series can be described thus: Cytotoxicity test of conjugate LDC10B. In kind it is cell-based, human. Conditions: SKOV3, Incubation Time 30 min. The procedure: as §2, §17, §18, §19, §20, §21

For FITC-ACP-Lys (Folate)-OH [Folate-FITC], the “endocytosis (enters cells)” value in series [1] is “but not A375 cells”; in [2] (1 μM FITC conjugate, 10-15 min at 37° C., KB cells) it was “enters KB cells”. Also, in series [2] (pre-incubating KB cells with (50 fold excess of conjugate) free Folate, data not shown), the “endocytosis after pre-incubation with free Folate” value was “completely blocked”.

As for “Folate-(PEG)3-MC-Val-Cit-PAB-MMAE [LDC1]”, the IC50 turned out to be 37000 nM with melanoma cell line A375 [3]; 9400 nM in series [4]; 4000 nM in series [5]; 295 nM in series [6]; 137 nM in [7]; 186 nM in [8]. Further, the half-inhibitory concentration (IC50) in series [9] was determined as 77.9 nM; in [10], 201 nM; in series [11] it was 526 nM; in series [12], 715 nM; in series [13] it was 65 nM; with melanoma cell line A375 [14], 10000 nM. Moreover, the half-maximal inhibitory concentration (IC50) in series [15] stood at 93.1 nM; in series [16] it was 192 nM; in series [17] it was 15000 nM; in [18], 262 nM; in [19], 239 nM; in series [20], 98.2 nM. For the same substance, the results for the IC50 in series [21] and in [22] were 94.4 nM and 102 nM, respectively.
